Laboratory results: PMC10569638 (PLOS ONE, 2023)
Like-named read-outs stand apart in the source and are kept apart here.

How the values were obtained:
Format in all cases: cell-based
[1] = molecular target: T1, zebrafish αβδε nAChR (ε-type) (Danio rerio, UniProt A2BG85+Q75XT1+Q98880); assay: TEVC inhibition of ACh-elicited nAChR current in Xenopus oocytes, ε-type; conditions: for Hill coefficient: inhibition, ε-type
Method: (§1) The bath solution was ND96. […] Oocytes were incubated around 30 sec in the bath solution containing inhibitors of identical concentration. Recordings were performed at room temperature. Holding potential was -80 mV. Vecuronium and rocuronium were purchased from Tokyo Chemical Industry. Pancuronium and d-tubocurarine were purchased from Alomone Labs and FUJIFILM Wako Chemicals, respectively.
(§2) Fitting algorism is identical to that of ACh.

[2] = molecular target: T2, zebrafish αβδ nAChR (δ-type) (Danio rerio, UniProt Q75XT1+Q98880); assay: TEVC inhibition of ACh-elicited nAChR current in Xenopus oocytes, δ-type; conditions: for Hill coefficient: inhibition, δ-type
Method: as §1, §2

[3] = molecular target: zebrafish nAChR containing δ/ε/ε chimeric subunit (Danio rerio, UniProt A2BG85+Q75XT1+Q98880); assay: TEVC inhibition of nAChR current, α, β, δ + δ/ε/ε chimera; conditions: mean ± sem
Method: as §1, §2

[4] = molecular target: T1, zebrafish αβδε nAChR (ε-type); assay: Voltage-dependent block tested by ramp pulses, ε-type; conditions: 20 nM pancuronium
Method: (§3) To examine possible pore blocking activity of pancuronium, the voltage-dependent block was tested by ramp pulses in the presence of pancuronium.
(§4) Fig 10 Voltage-dependent change of the conductance in the presence and absence of pancuronium. (A1), (B1), Representative current traces of the ε-type (A1) and the δ-type (B1). The black and gray traces are in the absence and the presence of 20 nM pancuronium, respectively. Pulse protocols are shown at the bottom. (A2), (B2), Representative I-V curves of the ε-type (A2) and the δ-type (B2). (A3), (B3), G-V curves of the ε-type (A3) and the δ-type (B3). Data were normalized by the conductance at -100 mV. Data are shown as mean ± sem. (N = 9 for all data).

[5] = molecular target: T2, zebrafish αβδ nAChR (δ-type); assay: Voltage-dependent block tested by ramp pulses, δ-type; conditions: 20 nM pancuronium
Method: as §3, §4

[6] = molecular target: zebrafish nAChR containing ε/δ/ε chimeric subunit (Danio rerio, UniProt A2BG85+Q75XT1+Q98880); assay: TEVC inhibition of nAChR current, α, β, δ + ε/δ/ε chimera; conditions: 100 μM ACh, mean ± sem
Method: as §1, §2

[7] = molecular target: zebrafish nAChR containing ε/ε/δ chimeric subunit (Danio rerio, UniProt A2BG85+Q75XT1+Q98880); assay: TEVC inhibition of nAChR current, α, β, δ + ε/ε/δ chimera; conditions: 100 μM ACh, mean ± sem
Method: as §1, §2

[8] = molecular target: zebrafish nAChR containing δ/δ/ε chimeric subunit (Danio rerio, UniProt A2BG85+Q75XT1+Q98880); assay: TEVC inhibition of nAChR current, α, β, δ + δ/δ/ε chimera; conditions: 100 μM ACh, mean ± sem
Method: as §1, §2

[9] = molecular target: zebrafish nAChR containing ε/δ/δ chimeric subunit (Danio rerio, UniProt A2BG85+Q75XT1+Q98880); assay: TEVC inhibition of nAChR current, α, β, δ + ε/δ/δ chimera; conditions: mean ± sem
Method: as §1, §2

[10] = molecular target: zebrafish nAChR containing δ/ε/δ chimeric subunit (Danio rerio, UniProt A2BG85+Q75XT1+Q98880); assay: TEVC inhibition of nAChR current, α, β, δ + δ/ε/δ chimera; conditions: 100 μM ACh, mean ± sem
Method: as §1, §2

[11] = IC50, ε-type, current elicited by 100 μM ACh, -80 mV, mean ± sem
[12] = IC50, δ-type, current elicited by 100 μM ACh, -80 mV, mean ± sem

T2 sequence (Q98880 21-456): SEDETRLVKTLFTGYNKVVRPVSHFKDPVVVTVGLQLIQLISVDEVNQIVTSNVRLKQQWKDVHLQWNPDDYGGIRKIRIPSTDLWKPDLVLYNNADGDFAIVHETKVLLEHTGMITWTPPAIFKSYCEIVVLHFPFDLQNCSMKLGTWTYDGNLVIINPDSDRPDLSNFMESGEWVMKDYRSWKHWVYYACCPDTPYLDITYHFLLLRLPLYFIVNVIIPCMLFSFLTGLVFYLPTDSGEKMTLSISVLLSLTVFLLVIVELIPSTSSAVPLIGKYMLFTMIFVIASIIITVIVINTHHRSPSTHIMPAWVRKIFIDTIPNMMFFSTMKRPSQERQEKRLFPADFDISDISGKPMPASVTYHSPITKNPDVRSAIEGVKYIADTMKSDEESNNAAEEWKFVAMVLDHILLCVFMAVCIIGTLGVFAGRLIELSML
T2 sequence (Q75XT1 22-518): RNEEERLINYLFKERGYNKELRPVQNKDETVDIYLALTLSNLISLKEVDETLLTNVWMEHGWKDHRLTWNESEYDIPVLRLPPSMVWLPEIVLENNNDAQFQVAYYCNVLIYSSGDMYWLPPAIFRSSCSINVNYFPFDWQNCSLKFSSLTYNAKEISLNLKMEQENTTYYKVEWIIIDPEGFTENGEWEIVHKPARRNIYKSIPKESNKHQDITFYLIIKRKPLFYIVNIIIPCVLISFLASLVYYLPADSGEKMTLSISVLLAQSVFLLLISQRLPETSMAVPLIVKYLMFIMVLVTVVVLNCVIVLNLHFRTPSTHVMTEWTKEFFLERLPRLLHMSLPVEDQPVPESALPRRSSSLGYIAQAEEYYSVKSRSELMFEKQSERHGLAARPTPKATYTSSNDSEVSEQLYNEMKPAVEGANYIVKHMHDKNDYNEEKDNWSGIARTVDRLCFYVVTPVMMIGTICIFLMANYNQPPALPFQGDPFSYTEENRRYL
T2 sequence (G1FMP8 23-492 partner): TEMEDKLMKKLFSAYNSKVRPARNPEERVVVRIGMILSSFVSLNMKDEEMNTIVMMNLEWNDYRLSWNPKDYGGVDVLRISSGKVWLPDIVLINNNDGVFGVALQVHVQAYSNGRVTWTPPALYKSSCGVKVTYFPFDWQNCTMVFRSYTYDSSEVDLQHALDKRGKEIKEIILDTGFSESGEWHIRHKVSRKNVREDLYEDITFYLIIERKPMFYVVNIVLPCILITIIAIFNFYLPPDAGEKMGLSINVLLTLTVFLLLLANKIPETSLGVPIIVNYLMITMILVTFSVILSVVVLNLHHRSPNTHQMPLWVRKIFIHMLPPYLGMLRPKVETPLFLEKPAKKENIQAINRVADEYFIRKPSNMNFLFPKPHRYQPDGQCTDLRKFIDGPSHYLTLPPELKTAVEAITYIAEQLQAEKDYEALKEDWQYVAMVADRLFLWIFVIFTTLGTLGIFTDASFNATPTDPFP
T1 sequence (Q98880 21-456): as the sequence (Q98880 21-456) above
T1 sequence (Q75XT1 22-518): as the sequence (Q75XT1 22-518) above
T1 sequence (A2BG85 27-517): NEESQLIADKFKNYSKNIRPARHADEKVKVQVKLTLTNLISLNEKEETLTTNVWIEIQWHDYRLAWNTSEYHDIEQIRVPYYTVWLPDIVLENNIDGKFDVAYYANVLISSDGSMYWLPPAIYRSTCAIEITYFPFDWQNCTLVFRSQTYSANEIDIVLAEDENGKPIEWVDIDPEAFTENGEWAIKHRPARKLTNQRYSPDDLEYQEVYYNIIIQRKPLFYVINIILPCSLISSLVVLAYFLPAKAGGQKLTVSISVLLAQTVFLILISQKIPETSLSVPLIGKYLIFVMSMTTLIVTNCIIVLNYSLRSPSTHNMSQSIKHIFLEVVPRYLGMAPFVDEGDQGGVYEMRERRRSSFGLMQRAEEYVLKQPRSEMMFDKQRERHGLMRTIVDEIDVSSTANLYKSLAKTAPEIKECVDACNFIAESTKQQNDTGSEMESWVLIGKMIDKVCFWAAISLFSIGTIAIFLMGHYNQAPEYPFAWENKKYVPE
T1 sequence (G1FMP8 23-492 partner): as the sequence (G1FMP8 23-492 partner) above
zebrafish nAChR containing δ/ε/ε chimeric subunit, sequence (Q75XT1 1-234, stated change not applied): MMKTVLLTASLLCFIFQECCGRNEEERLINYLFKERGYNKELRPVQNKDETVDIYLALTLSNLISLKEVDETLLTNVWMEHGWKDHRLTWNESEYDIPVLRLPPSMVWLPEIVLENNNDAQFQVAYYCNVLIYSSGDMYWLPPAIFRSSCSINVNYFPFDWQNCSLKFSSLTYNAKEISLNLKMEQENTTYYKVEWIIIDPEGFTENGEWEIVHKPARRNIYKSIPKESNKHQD
zebrafish nAChR containing δ/ε/ε chimeric subunit, sequence (A2BG85 235-517, stated change not applied): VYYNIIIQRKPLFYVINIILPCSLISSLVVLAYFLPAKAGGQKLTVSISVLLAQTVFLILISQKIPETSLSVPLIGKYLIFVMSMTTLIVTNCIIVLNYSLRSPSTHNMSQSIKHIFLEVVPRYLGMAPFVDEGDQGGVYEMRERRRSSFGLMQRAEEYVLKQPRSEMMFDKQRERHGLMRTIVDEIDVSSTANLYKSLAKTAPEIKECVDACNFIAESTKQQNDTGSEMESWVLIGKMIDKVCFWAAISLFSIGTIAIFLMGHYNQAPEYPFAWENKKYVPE
zebrafish nAChR containing δ/ε/ε chimeric subunit, sequence (Q98880 21-456, stated change not applied): as the sequence (Q98880 21-456) above
zebrafish nAChR containing δ/ε/ε chimeric subunit, sequence (Q75XT1 1-234, stated change not applied): as the sequence (Q75XT1 1-234, stated change not applied) above
zebrafish nAChR containing δ/ε/ε chimeric subunit, sequence (G1FMP8 23-492 partner): as the sequence (G1FMP8 23-492 partner) above
zebrafish nAChR containing ε/δ/δ chimeric subunit, sequence (A2BG85 1-234, stated change not applied): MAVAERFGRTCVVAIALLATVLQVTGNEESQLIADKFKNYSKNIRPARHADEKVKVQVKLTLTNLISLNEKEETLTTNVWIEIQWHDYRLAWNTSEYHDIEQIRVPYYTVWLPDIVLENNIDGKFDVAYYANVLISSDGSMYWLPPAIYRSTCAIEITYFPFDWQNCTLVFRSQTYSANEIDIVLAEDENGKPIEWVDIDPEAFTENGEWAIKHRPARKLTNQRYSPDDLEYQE
zebrafish nAChR containing ε/δ/δ chimeric subunit, sequence (Q75XT1 235-518, stated change not applied): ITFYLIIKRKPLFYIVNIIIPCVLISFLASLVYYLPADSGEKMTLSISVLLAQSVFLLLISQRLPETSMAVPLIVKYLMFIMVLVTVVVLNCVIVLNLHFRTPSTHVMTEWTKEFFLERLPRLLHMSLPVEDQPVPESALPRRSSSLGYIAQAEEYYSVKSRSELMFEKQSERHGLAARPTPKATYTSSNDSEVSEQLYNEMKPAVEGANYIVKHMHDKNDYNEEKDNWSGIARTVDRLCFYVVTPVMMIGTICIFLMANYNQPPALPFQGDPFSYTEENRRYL
zebrafish nAChR containing ε/δ/δ chimeric subunit, sequence (Q98880 21-456, stated change not applied): as the sequence (Q98880 21-456) above
zebrafish nAChR containing ε/δ/δ chimeric subunit, sequence (Q75XT1 235-518, stated change not applied): as the sequence (Q75XT1 235-518, stated change not applied) above
zebrafish nAChR containing ε/δ/δ chimeric subunit, sequence (G1FMP8 23-492 partner): as the sequence (G1FMP8 23-492 partner) above

Compound | IC50 [1, 11] [nM] | Hill coefficient ([1]; 100 μM ACh, mean ± sem) | IC50 [2, 12] [nM] | Hill coefficient ([2]; 100 μM ACh, mean ± sem) | Hill coefficient ([3]; 100 μM ACh) | Hill coefficient ([3]; by 2 μM ACh) | IC50 ([1]; IC50, ε-type, by 2 μM ACh, mean ± sem) [nM] | Hill coefficient ([1]; by 2 μM ACh, mean ± sem) | IC50 ([2]; IC50, δ-type, by 2 μM ACh, mean ± sem) [nM] | Hill coefficient ([2]; by 2 μM ACh, mean ± sem) | voltage-dependent block [4] | voltage-dependent block [5] | Hill coefficient [6] | Hill coefficient [7] | Hill coefficient [8] | Hill coefficient ([9]; 100 μM ACh) | Hill coefficient ([9]; by 2 μM ACh) | Hill coefficient [10] | IC50 [1] [nM] | IC50 [2] [nM]
CC(=O)O[C@H]1C[C@@H]2CC[C@@H]3[C@H](CC[C@@]4(C)[C@H]3C[C@H]([N+]3(C)CCCCC3)[C@@H]4OC(C)=O)[C@@]2(C)C[C@@H]1N1CCCCC1 [vecuronium] | 1.1 ± 0.2 | 1.3 ± 0.2 | 0.7 ± 0.1 | 1.0 ± 0.1 |  |  |  |  |  |  |  |  |  |  |  |  |  |  |  | 
C=CC[N+]1([C@H]2C[C@H]3[C@@H]4CC[C@H]5C[C@H](O)[C@@H](N6CCOCC6)C[C@]5(C)[C@H]4CC[C@]3(C)[C@H]2OC(C)=O)CCCC1 [rocuronium] | 4.7 ± 0.7 | 0.7 ± 0.1 | 4.2 ± 0.7 | 1.1 ± 0.1 |  |  |  |  |  |  |  |  |  |  |  |  |  |  |  | 
CC(=O)O[C@H]1C[C@@H]2CC[C@@H]3[C@H](CC[C@@]4(C)[C@H]3C[C@H]([N+]3(C)CCCCC3)[C@@H]4OC(C)=O)[C@@]2(C)C[C@@H]1[N+]1(C)CCCCC1 [pancuronium] | 15.6 ± 1 | 1.1 ± 0.1 | 116 ± 29.2 | 1.3 ± 0.4 | 1.0 ± 0.0 | 1.8 ± 1.0 | 12.5 ± 1.9 | 1.1 ± 0.2 | 109 ± 30.9 | 1.1 ± 0.2 | the specific blockage of outward or inward current by pancuronium was not observed | voltage dependency of block was again not observed | 0.9 ± 0.1 | 1.8 ± 0.3 | 1.0 ± 0.1 | 1.7 ± 0.5 | 1.4 ± 0.5 | 1.0 ± 0.1 |  | 
COc1cc2c3cc1Oc1cc(ccc1O)C[C@@H]1c4c(cc(OC)c(O)c4Oc4ccc(cc4)C[C@@H]3N(C)CC2)CC[N+]1(C)C [d-tubocurarine] |  | 1.2 ± 0.1 |  | 1.1 ± 0.1 |  |  |  |  |  |  |  |  |  |  |  |  |  |  | 112 ± 8.2 | 123 ± 18.7
